Patent US5587360A, “Platelet adhesion inhibitor” (Merck Patent GmbH, priority 1990, dated 1996)
Where two headings read alike, the source gives them in different places.

System: leech-derived protein according to the invention
Experiment: Effect of typical inhibitors on the activity of the protein
Type: biochemical, Hirudo medicinalis
Details: for IC50: read-out: IC50 (mM), dose of inhibitor which gave half maximal inhibition
Description: Any hydrolysis of the chromogenic substrates. S2251, S2586, S2288. […] A preferred assay method is described below. Preparations for assay are reconstituated or diluted in assay buffer: 50 mM Tris, 0.2M NaCl, 0.05% casein (Hammerstan grade from British Drug Houses), 0.1% Brij 35, 0.01% sodium azide, pH8.0. Activity is det.ermined using modification of the AZOCCLL assay adapted to microtitre plates. Aliquots (100 microliters) of protein. in a range of dilutions in assay buffer, are incubated with a suspension of washed substrate (100 microliters: 10mg/ml) at 37 degrees Celsius. At the end of the incubation period which varies according to the experiment and dose of protein, the undigested substrate is sedimented by centrifugation and aliquots (100 microliters) of the supernatants transferred to another plate in which the absorbance at 560 nm is measured. Protein activity can be expressed as milliequivalent units of bacterial collagenase (Clostridium histolyticum) assayed at the same time under the same conditions.
The effect of some typical inhibitors was examined. The protein (5000 units/ml of a preparation of specific activity 10,000-20,000 units/mg) was incubated with DTT, cysteine, EDTA and leech anti-chymotrypsin in a range of concentrations with substrate. […] The effects of orthophenanthroline (2 mM): TIMP (tissue inhibitor of metallo-proteinase) 0.4 micrograms with APMA (0.5 mM) and with pre-incubation for 15 min): SBTI (7.5 micrograms and 30 min pre-incubation): and PMSF ([…] with 30 min pre-incubation) were also studied.

[1] = protein 5000 units/ml, o-phenanthroline 2 mM, TIMP 0.4 micrograms, SBTI 7.5 micrograms, PMSF single dose only

Molecule | effect of inhibitor on activity of the protein (protein 5000 units/ml) | IC50 [1] [mM] | effect of inhibitor on activity of the protein | IC50 [mM] | IC50 (mM), dose of inhibitor which gave half maximal inhibition [1]
O[C@H](CS)[C@H](O)CS (racemic) [Dithiothreitol] | destroyed activity | 0.2 | – | – | –
N[C@@H](CS)C(=O)O [Cysteine] | destroyed activity | 3 | – | – | –
O=C(O)CN(CCN(CC(=O)O)CC(=O)O)CC(=O)O [EDTA] | – | – | destroyed activity | 2 | –
O=S(=O)(F)Cc1ccccc1 [PMSF] | did not inhibit activity | – | – | – | No effect
c1cnc2c(c1)ccc1cccnc12 [o-Phenanthroline] | did not inhibit activity | – | – | – | No effect
[N-]=[N+]=[N-] [sodium azide] | did not inhibit activity | – | – | – | –
SBTI: soybean trypsin inhibitor (protein, UniProt P01070 25-205, looked up) Trypsin inhibitor A: DFVLDNEGNPLENGGTYYILSDITAFGGIRAAPTGNERCPLTVVQSRNELDKGIGTIISSPYRIRFIAEGHPLSLKFDSFAVIMLCVGIPTEWSVVEDLPEGPAVKIGENKDAMDGWFRLERVSDDEFNNYKLVFCPQQAEDDKCGDIGISIDHDDGTRRLVVSKNKPLVVQFQKLDKESL | did not inhibit activity | – | – | – | No effect
